# Test results as given in patent US8324176B2, “Pyrazole derivatives, medicinal composition containing the same, medicinal use thereof, and intermediate for production thereof” (Kissei Pharmaceutical Co., Ltd., priority 2002, dated 2012).
# What was measured:
# diabetic rats = experiment: Assay for inhibitory effects on blood glucose level increase in rats (liquid meal tolerance test); assay type: in vivo, rat; settings: test compound 1 mg/kg orally, liquid meal 17.25 kcal/kg, mean±S.E.; for Plasma glucose concentration 0.5 h: 0.5 hour after the drug administration; for Plasma glucose concentration 1 h: 1 hour after the drug administration
# Experimental: Assay for Inhibitory Effects on Blood Glucose Level Increase in Rats
# 1) Preparation of Diabetic Rat Model
# Male wistar rats (Japan Charles River), aged 8 weeks old, were injected nicotinamide (230 mg/kg) intraperitoneally. Fifteen minutes after injection, they were injected streptozotocin (85 mg/kg) intravenously from tail vain under anesthesia with ether. After a week, rats were fasted overnight and then glucose tolerance test (2 g/kg) was done.
# 2) Liquid Meal Tolerance Test
# After overnight fasted, the diabetic rats were orally administered a test compound (1 mg/kg), which was dissolved in distilled water or 0.5% aqueous carboxymethylcellulose solution, in the drug-treating group, or distilled water or 0.5% aqueous carboxymethylcellulose solution alone in a control group. Immediately after the compound administration, 17.25 kcal/kg of liquid meal (No. 038, Control diet, assorted with dextrin and maltose; Oriental Yeast Co., Ltd.) was loaded orally. The blood was collected from tail artery immediately before and after administration with the time course, and treated with heparin immediately. The blood was centrifuged, and the plasma was collected to quantify the plasma glucose concentration by glucose oxidase method. The values in the Table are presented as the mean±S.E.
# human SGLT1 = molecular target: T1, human SGLT1 (Homo sapiens, UniProt P13866); experiment: Assay for inhibitory effects on human SGLT1 activity (uptake of methyl-α-D-glucopyranoside in CS1-5-11D cells); assay type: cell-based; settings: CHO-K1 cells stably expressing human SGLT1 (CS1-5-11D); 1 mM α-MG uptake, 37° C., 1 hour
# T1 construct: expressed in transfected cells
# T1 sequence (P13866 1-664): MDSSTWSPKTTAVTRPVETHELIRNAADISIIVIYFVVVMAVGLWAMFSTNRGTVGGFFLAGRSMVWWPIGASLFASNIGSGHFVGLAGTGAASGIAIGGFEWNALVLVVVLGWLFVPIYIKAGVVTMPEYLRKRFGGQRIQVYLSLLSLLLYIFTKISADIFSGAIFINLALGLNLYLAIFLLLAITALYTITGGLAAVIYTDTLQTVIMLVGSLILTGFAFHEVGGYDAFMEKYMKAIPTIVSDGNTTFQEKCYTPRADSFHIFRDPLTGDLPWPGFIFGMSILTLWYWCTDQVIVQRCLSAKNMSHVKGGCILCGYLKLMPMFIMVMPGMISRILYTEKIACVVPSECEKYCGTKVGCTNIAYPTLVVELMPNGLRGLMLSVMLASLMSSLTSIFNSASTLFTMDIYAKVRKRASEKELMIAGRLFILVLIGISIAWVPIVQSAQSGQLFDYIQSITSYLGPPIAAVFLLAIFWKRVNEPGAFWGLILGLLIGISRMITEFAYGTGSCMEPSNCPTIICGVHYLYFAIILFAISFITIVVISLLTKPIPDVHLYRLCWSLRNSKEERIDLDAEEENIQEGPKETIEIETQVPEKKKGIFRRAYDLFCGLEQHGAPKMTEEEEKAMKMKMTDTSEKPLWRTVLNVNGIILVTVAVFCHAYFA
# Experimental: Assay for Inhibitory Effects on Human SGLT1 Activity
# 1) Cloning and Construction of the Vector Expressing Human SGLT1
# The cDNA library was prepared for PCR amplification by reverse transcription from total RNA deprived from human small intestine (Ori gene) using oligo-dT as a primer.
# 2) Establishment of Cell Line Stably Expressing Human SGLT1
# The expression vector of human SGLT1 was digested by Sca I into a linear DNA. The linear DNA was transfected into CHO-K1 cells by means of lipofection (Effectene Transfection Reagent: QIAGEN). Neomycin resistant cell lines were selected by culture in the medium containing G418 (1 mg/mL, LIFE TECHNOLOGIES), and then the activity against the uptake of methyl-α-D-glucopyranoside was measured by the method described below. […] CS1-5-11D cells were cultured in the presence of G418 at 200 μg/mL.
# 3) Measurement of the Inhibitory Activity Against the Uptake of Methyl-α-D-glucopyranoside (α-MG)
# CS1-5-11D cells were seeded into a 96-well culture plate at a density of 3×10^4 cells/well and cultured for 2 days, and were used in the uptake assay. A mixture of non-labeled (Sigma) and ^14C-labeled α-MG (Amersham Pharmcia Biotec) was added to the uptake buffer (pH 7.4: containing 140 mM sodium chloride, 2 mM potassium chloride, 1 mM calcium chloride, 1 mM magnesium chloride, 10 mM 2-[4-(2-hydroxyethyl)-1-piperazinyl]ethane sulfonic acid, and 5 mM tris(hydroxymethyl)aminomethane) at the final concentration of 1 mM. A test compound was dissolved in dimethyl sulfoxide, and then appropriately diluted with distilled water. The test compound solution was added to the uptake buffer containing 1 mM α-MG, and designated as a measurement buffer. For the control group, the measurement buffer without any test compound was prepared. For measuring the basal uptake, a basal uptake measurement buffer which contains 140 mM chorine chloride instead of sodium chloride was prepared. After removing the culture medium of CS1-5-11D cells, 180 μL of the pre-treatment buffer (the basal uptake buffer without α-MG) was added to each well and incubated at 37° C. for 10 minutes. After repeating the same treatment, the pre-treatment buffer was removed. To each well was added 75 μL of the measurement buffer or the basal uptake buffer was added and incubated at 37° C. for 1 hour. After removing the measurement buffer, cells were washed twice with 180 μL per well of the washing buffer (the basal uptake buffer containing 10 mM non-labeled α-MG). The cells were solubilized by 75 μL per well of 0.2 mol/L sodium hydroxide. The cell lysates were transferred into PicoPlates (Packard), and then added 150 μL of MicroScint-40 (Packard) and mixed. Radioactivity was measured by means of micro-scintillation counter TopCount (Packard). One hundred was set to the difference between the uptake in the control group and the basal uptake, and the uptake of methyl α-D-glucopyranoside a teach drug concentration were calculated.
# Male ICR mice = experiment: Acute toxicity test; assay type: in vivo; settings: n=5, oral dose of 1 g/kg, observed for 24 hours
# Experimental: Male ICR mice (CLEA Japan, Inc.; 32-37 g, n=5), aged 6 weeks old, were fasted for 4 hours.
IC50 (human SGLT1) [nM],SMILES,Plasma glucose concentration 0.5 h (diabetic rats) [mg/dL],Plasma glucose concentration 1 h (diabetic rats) [mg/dL],Number of death (Male ICR mice),Plasma glucose concentration 0 h (diabetic rats; pretreatment (0 h)) [mg/dL]
160,"Cc1cc(OCCCN2CCN(CCO)CC2)ccc1Cc1c(O[C@@H]2O[C@H](CO)[C@@H](O)[C@H](O)[C@H]2O)n[nH]c1C(C)C [Example 35, 3-(β-D-Glucopyranosyloxy)-4-[(4-{3-[4-(2-hydroxyethyl)piperazin-1-yl]propoxy}-2-methylphenyl)methyl]-5-isopropyl-1H-pyrazole]",188 ± 16,229 ± 25,,
61,"CC(C)c1[nH]nc(O[C@@H]2O[C@H](CO)[C@@H](O)[C@H](O)[C@H]2O)c1Cc1ccc(OCCCNC(=O)NC(C)(C)CO)cc1 [Example 24, 3-(β-D-Glucopyranosyloxy)-4-{[4-(3-{3-[2-hydroxy-1,1-di(methyl)ethyl]ureido}propoxy)phenyl]methyl}-5-isopropyl-1H-pyrazole]",210 ± 33,228 ± 50,,
68,Cc1cc(OCCCNCC(N)=O)ccc1Cc1c(O[C@@H]2O[C@H](CO)[C@@H](O)[C@H](O)[C@H]2O)n[nH]c1C(C)C [Example 45],169 ± 18,182 ± 27,,
127,"CC(C)c1[nH]nc(O[C@@H]2O[C@H](CO)[C@@H](O)[C@H](O)[C@H]2O)c1Cc1ccc(OCCCNC(=O)NC(C)(CO)CO)cc1 [Example 21, 3-(β-D-Glucopyranosyloxy)-4-{[4-(3-{3-[2-hydroxy-1-(hydroxymethyl)-1-(methyl)ethyl]ureido}propoxy)phenyl]-methyl}-5-isopropyl-1H-pyrazole]",211 ± 22,242 ± 35,,
304,"CC(C)c1[nH]nc(O[C@@H]2O[C@H](CO)[C@@H](O)[C@H](O)[C@H]2O)c1Cc1ccc(OCCCN)cc1 [Example 6, 4-{[4-(3-Aminopropoxy)phenyl]methyl}-3-(β-D-glucopyranosyloxy)-5-isopropyl-1H-pyrazole]",126 ± 12,140 ± 13,,
71,"Cc1cc(OCCCNC(CO)CO)ccc1Cc1c(O[C@@H]2O[C@H](CO)[C@@H](O)[C@H](O)[C@H]2O)n[nH]c1C(C)C [Example 59, 3-(β-D-Glucopyranosyloxy)-4-[(4-(3-[2-hydroxy-1-(hydroxymethyl)ethylamino]propoxy)-2-methylphenyl)methyl]-5-isopropyl-1H-pyrazole]",143 ± 4,154 ± 13,,
169,"CC(C)c1[nH]nc(O[C@@H]2O[C@H](CO)[C@@H](O)[C@H](O)[C@H]2O)c1Cc1ccc(OCCCNS(C)(=O)=O)cc1 [Example 10, 3-(β-D-Glucopyranosyloxy)-5-isopropyl-4-({4-[3-(methanesulfonylamino)propoxy]phenyl}methyl)-1H-pyrazole]",145 ± 5,164 ± 6,,
98,"Cc1cc(OCCCNC(=N)N)ccc1Cc1c(O[C@@H]2O[C@H](CO)[C@@H](O)[C@H](O)[C@H]2O)n[nH]c1C(C)C [Example 55, 3-(β-D-Glucopyranosyloxy)-4-{[4-(3-guanidinopropoxy)-2-methylphenyl]methyl}-5-isopropyl-1H-pyrazole]",200 ± 16,211 ± 18,,
267,"CC(C)c1[nH]nc(O[C@@H]2O[C@H](CO)[C@@H](O)[C@H](O)[C@H]2O)c1Cc1ccc(OCCCNC(=O)CN)cc1 [Example 13, 4-({4-[3-(2-Aminoacetylamino)propoxy]phenyl}methyl)-3-(β-D-glucopyranosyloxy)-5-isopropyl-1H-pyrazole]",127 ± 7,135 ± 7,,
,"Cc1cc(OCCCNCCC(N)=O)ccc1Cc1c(O[C@@H]2O[C@H](CO)[C@@H](O)[C@H](O)[C@H]2O)n[nH]c1C(C)C [Example 52, 4-[(4-{3-[2-(Carbamoyl)ethylamino]propoxy}-2-methylphenyl)methyl]-3-(β-D-glucopyranosyloxy)-5-isopropyl-1H-pyrazole]",163 ± 5,176 ± 10,0/5,
38,"Cc1cc(OCCNC(=N)N)ccc1Cc1c(O[C@@H]2O[C@H](CO)[C@@H](O)[C@H](O)[C@H]2O)n[nH]c1C(C)C [Example 56, 3-(β-D-Glucopyranosyloxy)-4-{[4-(2-guanidinoethoxy)-2-methylphenyl]methyl}-5-isopropyl-1H-pyrazole]",146 ± 7,165 ± 17,,
158,"CC(C)c1[nH]nc(O[C@@H]2O[C@H](CO)[C@@H](O)[C@H](O)[C@H]2O)c1Cc1ccc(OCCCNC(=NC#N)NCCO)cc1 [Example 37, 4-[(4-{3-[2-Cyano-3-(2-hydroxyethyl)guanidino]propoxy}phenyl)methyl]-3-(β-D-glucopyranosyloxy)-5-isopropyl-1H-pyrazole]",231 ± 21,286 ± 31,,
178,"CC(C)c1[nH]nc(O[C@@H]2O[C@H](CO)[C@@H](O)[C@H](O)[C@H]2O)c1Cc1ccc(OCCCNCc2cccnc2)cc1 [Example 64, 3-(β-D-Glucopyranosyloxy)-5-isopropyl-4-({4-[3-(3-pyridyl-methylamino)propoxy]phenyl}methyl)-1H-pyrazole]",141 ± 12,148 ± 22,,116 ± 2
